Source: paper PMC5806375, “Characterization and expression analysis of a newly identified glutathione S-transferase of the hard tick Haemaphysalis longicornis during blood-feeding” (Parasites & Vectors, 2018)

Assays:
[1] = molecular target: T1, HlGST (recombinant HlGST, rHlGST) (Haemaphysalis longicornis, UniProt Q6JVN0); experiment: absorbance at […] nm, Lineweaver-Burk plot; type: biochemical; settings: 5 mM GSH, CDNB 0.125-2 mM, 100 mM Tris-HCl pH 7.5, 25 °C, 5% methanol; read-out: CDNB kinetic constant^a
T1 construct: gene GST
T1 sequence (Q6JVN0 1-223): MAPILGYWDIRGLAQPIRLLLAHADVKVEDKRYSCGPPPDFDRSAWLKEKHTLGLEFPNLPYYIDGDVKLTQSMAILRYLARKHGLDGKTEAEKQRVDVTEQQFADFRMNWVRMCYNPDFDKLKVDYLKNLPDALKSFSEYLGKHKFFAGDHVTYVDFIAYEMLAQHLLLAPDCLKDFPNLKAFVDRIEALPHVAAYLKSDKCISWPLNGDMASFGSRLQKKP

[2] = molecular target: T2, HlGST2 (recombinant HlGST2, rHlGST2) (Haemaphysalis longicornis, UniProt A0A2Z6FA39); experiment: absorbance at […] nm, Lineweaver-Burk plot; type: biochemical; settings: 5 mM GSH, CDNB 0.125-2 mM, 100 mM Tris-HCl pH 7.5, 25 °C, 5% methanol; read-out: CDNB kinetic constant^a
T2 construct: gene GST
T2 sequence (A0A2Z6FA39 1-230): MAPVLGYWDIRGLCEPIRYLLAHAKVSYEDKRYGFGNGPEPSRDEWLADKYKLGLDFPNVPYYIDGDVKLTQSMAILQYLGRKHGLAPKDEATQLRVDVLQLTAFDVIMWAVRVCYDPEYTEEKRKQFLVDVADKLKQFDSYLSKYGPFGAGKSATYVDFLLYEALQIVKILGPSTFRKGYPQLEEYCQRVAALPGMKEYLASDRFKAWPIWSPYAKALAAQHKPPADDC

In the case of O=[N+]([O-])c1ccc(Cl)c([N+](=O)[O-])c1 [CDNB, 1-chloro-2,4-dinitrobenzene], the Km [1] is reported as 820 ± 140 µM and the Km [2] is reported as 610 ± 200 µM.
